Measurements reported in PubChem BioAssay (NCI).
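Step 1: Grow cells in 96-well plates. Step 2: Expose to compound for 48 hours at 5 concentrations. Step 3: Interpolate endpoints linearly; if unreached, use highest concentration. At the GI50, growth is halved. TGI: concentration producing complete growth inhibition.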

Assays:
Experiment in all cases: NCI anticancer screen, dose series, 48 h
UACC-257 melanoma = tested on: UACC-257 melanoma
HCC-2998 colon = tested on: HCC-2998 colon
KM12 colon = tested on: KM12 colon
NCI-H226 lung = tested on: NCI-H226 lung
SF-539 CNS = tested on: SF-539 CNS
T-47D breast = tested on: T-47D breast
EKVX NSCLC = tested on: EKVX NSCLC
LOX IMVI melanoma = tested on: LOX IMVI melanoma
SK-MEL-28 melanoma = tested on: SK-MEL-28 melanoma
NCI/ADR-RES ovarian = tested on: NCI/ADR-RES ovarian
PC-3 prostate = tested on: PC-3 prostate
MDA-MB-231 breast = tested on: MDA-MB-231 breast
MDA-MB-435 = tested on: MDA-MB-435
SR leukemia = tested on: SR leukemia
RXF 393 renal = tested on: RXF 393 renal
UO-31 renal = tested on: UO-31 renal
OVCAR-8 ovarian = tested on: OVCAR-8 ovarian
MCF7 breast = tested on: MCF7 breast
SN12C renal = tested on: SN12C renal
HCT-15 colon = tested on: HCT-15 colon
HL-60(TB) leukemia = tested on: HL-60(TB) leukemia
U251 CNS = tested on: U251 CNS
HS 578T breast = tested on: HS 578T breast
NCI-H23 lung = tested on: NCI-H23 lung
SK-MEL-5 melanoma = tested on: SK-MEL-5 melanoma
SK-OV-3 ovarian = tested on: SK-OV-3 ovarian
BT-549 breast = tested on: BT-549 breast
CAKI-1 renal = tested on: CAKI-1 renal
OVCAR-4 ovarian = tested on: OVCAR-4 ovarian
HCT-116 colon = tested on: HCT-116 colon
HT29 colon = tested on: HT29 colon
CCRF-CEM leukemia = tested on: CCRF-CEM leukemia
OVCAR-3 ovarian = tested on: OVCAR-3 ovarian
MALME-3M melanoma = tested on: MALME-3M melanoma
COLO 205 colon = tested on: COLO 205 colon
A498 renal = tested on: A498 renal
RPMI-8226 leukemia = tested on: RPMI-8226 leukemia
TK-10 renal = tested on: TK-10 renal
SNB-75 CNS = tested on: SNB-75 CNS
ACHN renal = tested on: ACHN renal
SK-MEL-2 melanoma = tested on: SK-MEL-2 melanoma
SW-620 colon = tested on: SW-620 colon
IGROV1 ovarian = tested on: IGROV1 ovarian
UACC-62 melanoma = tested on: UACC-62 melanoma
NCI-H522 lung = tested on: NCI-H522 lung
SF-268 CNS = tested on: SF-268 CNS
SNB-19 CNS = tested on: SNB-19 CNS
HOP-62 NSCLC = tested on: HOP-62 NSCLC
MOLT-4 leukemia = tested on: MOLT-4 leukemia
786-0 renal = tested on: 786-0 renal
NCI-H460 lung = tested on: NCI-H460 lung
HOP-92 NSCLC = tested on: HOP-92 NSCLC
OVCAR-5 ovarian = tested on: OVCAR-5 ovarian
SF-295 CNS = tested on: SF-295 CNS
K-562 leukemia = tested on: K-562 leukemia
DU-145 prostate = tested on: DU-145 prostate
M14 melanoma = tested on: M14 melanoma
A549 NSCLC = tested on: A549 NSCLC

In the case of `C[C@H]1CNC(=O)c2cnn3ccc(nc23)N[C@H](C)c2cc(F)ccc2O1`, the GI50 (UACC-257 melanoma) is reported as 6.45 µM, the TGI (UACC-257 melanoma) is reported as greater than 94 µM and the GI50 (HCC-2998 colon) is reported as 3.26 µM. For the same molecule, the TGI (HCC-2998 colon) was 70.3 µM, the TGI (KM12 colon) was greater than 100 µM and the GI50 (NCI-H226 lung) was 1.03 µM. The TGI (NCI-H226 lung) was 3.83 µM, the GI50 (SF-539 CNS) was 0.743 µM and the TGI (SF-539 CNS) was 3.79 µM. The GI50 (T-47D breast) was 1.6 µM, the TGI (T-47D breast) was greater than 93.5 µM and the GI50 (EKVX NSCLC) was 1.24 µM. The TGI (EKVX NSCLC) was greater than 75.4 µM, the GI50 (LOX IMVI melanoma) was 0.334 µM and the TGI (LOX IMVI melanoma) was 1.43 µM. The GI50 (SK-MEL-28 melanoma) was 18.5 µM, the TGI (SK-MEL-28 melanoma) was greater than 100 µM and the GI50 (NCI/ADR-RES ovarian) was 8.63 µM. It also gave a TGI (NCI/ADR-RES ovarian) of 47.4 µM, a GI50 (PC-3 prostate) of 1.53 µM and a TGI (PC-3 prostate) greater than 67 µM. It also gave a GI50 (MDA-MB-231 breast) of 0.514 µM, a TGI (MDA-MB-231 breast) of 13 µM and a GI50 (MDA-MB-435) of 8.84 µM. For the same molecule, the TGI (MDA-MB-435) was greater than 91.2 µM, the GI50 (SR leukemia) was 0.05 µM and the TGI (SR leukemia) was 19.2 µM. For the same molecule, the GI50 (RXF 393 renal) was 0.282 µM, the TGI (RXF 393 renal) was 1.26 µM and the GI50 (UO-31 renal) was 1.21 µM. For the same molecule, the TGI (UO-31 renal) was 3.56 µM, the GI50 (OVCAR-8 ovarian) was 2.54 µM and the TGI (OVCAR-8 ovarian) was greater than 55.1 µM. The GI50 (MCF7 breast) was 0.381 µM, the TGI (MCF7 breast) was greater than 100 µM and the GI50 (SN12C renal) was 0.815 µM. For the same molecule, the TGI (SN12C renal) was 12.8 µM, the GI50 (HCT-15 colon) was 2.05 µM and the TGI (HCT-15 colon) was 13.4 µM. It also gave a GI50 (HL-60(TB) leukemia) of 4.66 µM, a TGI (HL-60(TB) leukemia) greater than 62.5 µM and a GI50 (U251 CNS) of 3.36 µM. The TGI (U251 CNS) was greater than 100 µM, the GI50 (HS 578T breast) was 0.325 µM and the TGI (HS 578T breast) was 2.76 µM. The GI50 (NCI-H23 lung) was 1.93 µM, the TGI (NCI-H23 lung) was 53.1 µM and the GI50 (SK-MEL-5 melanoma) was 8.91 µM. It also gave a TGI (SK-MEL-5 melanoma) of 32.3 µM, a GI50 (SK-OV-3 ovarian) of 0.641 µM and a TGI (SK-OV-3 ovarian) of 10 µM. It also gave a GI50 (BT-549 breast) of 1.1 µM, a TGI (BT-549 breast) of 2.52 µM and a GI50 (CAKI-1 renal) of 0.343 µM. For the same molecule, the TGI (CAKI-1 renal) was 1.59 µM, the GI50 (OVCAR-4 ovarian) was 1.67 µM and the TGI (OVCAR-4 ovarian) was 26.6 µM. For the same molecule, the GI50 (HCT-116 colon) was 0.559 µM, the TGI (HCT-116 colon) was 16.9 µM and the GI50 (HT29 colon) was 0.457 µM. It also gave a GI50 (CCRF-CEM leukemia) of 0.444 µM, a TGI (CCRF-CEM leukemia) greater than 67.2 µM and a GI50 (OVCAR-3 ovarian) of 1.32 µM. It also gave a TGI (OVCAR-3 ovarian) of 19.6 µM, a GI50 (MALME-3M melanoma) of 16.6 µM and a TGI (MALME-3M melanoma) greater than 100 µM. It also gave a GI50 (COLO 205 colon) of 0.779 µM, a TGI (COLO 205 colon) of 4.33 µM and a GI50 (A498 renal) of 0.216 µM. The TGI (A498 renal) was 0.886 µM, the GI50 (RPMI-8226 leukemia) was 10.3 µM and the TGI (RPMI-8226 leukemia) was 41.6 µM. For the same molecule, the GI50 (TK-10 renal) was 0.749 µM, the TGI (TK-10 renal) was 3.12 µM and the GI50 (SNB-75 CNS) was 0.146 µM. For the same molecule, the TGI (SNB-75 CNS) was 1.05 µM, the GI50 (ACHN renal) was 0.558 µM and the TGI (ACHN renal) was 4.36 µM. The GI50 (SK-MEL-2 melanoma) was 3.54 µM, the TGI (SK-MEL-2 melanoma) was 24 µM and the GI50 (SW-620 colon) was 0.517 µM. It also gave a TGI (SW-620 colon) greater than 55.1 µM, a GI50 (IGROV1 ovarian) of 0.292 µM and a TGI (IGROV1 ovarian) of 1.92 µM. For the same molecule, the GI50 (UACC-62 melanoma) was 2.32 µM, the TGI (UACC-62 melanoma) was 39 µM and the GI50 (NCI-H522 lung) was 2.43 µM. The TGI (NCI-H522 lung) was 24.4 µM, the GI50 (SF-268 CNS) was 0.809 µM and the TGI (SF-268 CNS) was 3.79 µM. It also gave a GI50 (SNB-19 CNS) of 2.17 µM, a TGI (SNB-19 CNS) of 47.4 µM and a GI50 (HOP-62 NSCLC) of 1.03 µM. The TGI (HOP-62 NSCLC) was greater than 21.5 µM, the GI50 (MOLT-4 leukemia) was 1.96 µM and the TGI (MOLT-4 leukemia) was 42.2 µM. It also gave a GI50 (786-0 renal) of 0.495 µM, a TGI (786-0 renal) of 2.11 µM and a GI50 (NCI-H460 lung) of 0.946 µM. It also gave a TGI (NCI-H460 lung) of 25.1 µM, a GI50 (HOP-92 NSCLC) of 0.184 µM and a TGI (HOP-92 NSCLC) of 0.998 µM. For the same molecule, the GI50 (OVCAR-5 ovarian) was 0.385 µM, the TGI (OVCAR-5 ovarian) was 9.56 µM and the GI50 (SF-295 CNS) was 0.595 µM. It also gave a TGI (SF-295 CNS) of 8.15 µM, a GI50 (K-562 leukemia) of 3.64 µM and a TGI (K-562 leukemia) greater than 100 µM. For the same molecule, the GI50 (DU-145 prostate) was 2.26 µM, the TGI (DU-145 prostate) was 12.8 µM and the GI50 (M14 melanoma) was 1.78 µM. For the same molecule, the TGI (M14 melanoma) was greater than 100 µM, the GI50 (A549 NSCLC) was 0.937 µM and the TGI (A549 NSCLC) was 16.4 µM.
